Experimental data from patent US9393271B2, “GHRH agonists for islet cell transplantation and function and the treatment of diabetes” (UNIVERSITY OF MIAMI, priority 2012, dated 2016).
Non-standard residues stand in square brackets, D forms with d. Residues, ends and D or L forms follow the SMILES beside them. *: point of attachment. Desaminotyrosyl = O=C(CCc1ccc(O)cc1)*; hArg = N=C(N)NCCCC[C@H](N)C(=O)O; Agmatine = N=C(N)NCCCCN*; Nle = CCCC[C@H](N)C(=O)O; Orn = NCCC[C@H](N)C(=O)O; Abu = CC[C@H](N)C(=O)O; Aoc = NCCCCCCCC(=O)O; GABA = NCCCC(=O)O

Legend:
[1] = target: T1, GHRH receptor (human pituitary membrane homogenates) (Homo sapiens, UniProt Q02643); assay: GHRH receptor binding, ligand competition with 125I-labeled [His1,Nle27]hGHRH(1-32)NH2 (Table 6); settings: for Relative affinitiy (Binding potency) vs GHRH: GHRH(1-29) = 1; for Relative affinitiy (Binding potency) vs JI-38: JI-38 = 1
T1 sequence (Q02643 23-423): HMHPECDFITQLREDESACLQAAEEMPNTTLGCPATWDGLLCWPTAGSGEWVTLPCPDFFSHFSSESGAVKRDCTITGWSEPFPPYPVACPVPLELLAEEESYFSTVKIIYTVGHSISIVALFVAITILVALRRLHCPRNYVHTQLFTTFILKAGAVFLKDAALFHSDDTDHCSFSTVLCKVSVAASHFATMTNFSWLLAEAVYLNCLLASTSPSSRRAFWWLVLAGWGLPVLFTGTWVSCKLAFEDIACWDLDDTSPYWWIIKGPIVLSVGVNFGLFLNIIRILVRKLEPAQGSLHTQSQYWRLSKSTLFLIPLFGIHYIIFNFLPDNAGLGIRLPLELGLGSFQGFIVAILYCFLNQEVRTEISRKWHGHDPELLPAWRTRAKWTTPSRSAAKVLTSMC

[2] = target: T1, GHRH receptor (human pituitary membrane homogenates); assay: GHRH receptor binding, ligand competition with 125I-labeled JV-1-42 (Table 7); design: Normal human pituitaries were purchased from the National Hormone and Peptide Program; tissue National Hormone and Peptide Program (A. F. Parlow, Harbor-UCLA Medical Center, Torrance, Calif.); host or cells: normal human pituitary, membrane fraction / homogenate; settings: JI-38 = 1
[3] = target: T1, GHRH receptor (human pituitary membrane homogenates); assay: GHRH receptor binding, ligand competition with 125I-labeled JV-1-42 (Table 5); settings: for Relative affinitiy (Binding potency) vs GHRH: GHRH(1-29) = 1; for Relative affinitiy (Binding potency) vs JI-38: JI-38 = 1
[4] = tested on: GH level; assay: In vivo endocrine activity (GH release), subcutaneous administration; settings: rat, s.c.
Protocol: Subcutaneous Administration. Adult male rats were used and anesthetized with pentobarbital (6 mg/100 g, b.w.), by i.p. injection. […] Blood samples were taken from the jugular vein 5, 15 and/or 30 minutes after the injection. The blood samples were centrifuged, plasma was removed and the GH level was measured by ELISA. The results are summarized in terms of potency in Table 9.

Relative affinitiy (Binding potency) vs GHRH [1]	Relative affinitiy (Binding potency) vs JI-38 [1]	Compound	Relative affinitiy (Binding potency) vs JI-38 [2]	Relative affinitiy (Binding potency) vs GHRH [3]	Relative affinitiy (Binding potency) vs JI-38 [3]	Stimulation of growth hormone levels after s.c. administration (comparison in words) [4]
84.5	27.8	CCCC[C@H](NC(=O)[C@@H](NC(=O)[C@H](CC(=O)O)NC(=O)[C@H](CCC(N)=O)NC(=O)[C@H](CC(C)C)NC(=O)[C@H](CC(C)C)NC(=O)[C@H](CCCN)NC(=O)[C@H](CCCNC(=N)N)NC(=O)[C@H](C)NC(=O)[C@H](CO)NC(=O)[C@H](CC(C)C)NC(=O)[C@H](CCC(N)=O)NC(=O)[C@H](CC)NC(=O)[C@H](CC(C)C)NC(=O)[C@@H](NC(=O)[C@H](CCCN)NC(=O)[C@H](CCCNC(=N)N)NC(=O)[C@H](Cc1ccc(O)cc1)NC(=O)[C@H](CO)NC(=O)[C@@H](NC(=O)[C@@H](NC(=O)[C@H](Cc1ccccc1)NC(=O)[C@@H](NC(=O)[C@H](C)NC(=O)[C@H](CC(=O)O)NC(=O)[C@@H](C)NC(=O)CCc1ccc(O)cc1)[C@@H](C)CC)[C@@H](C)O)[C@@H](C)O)C(C)C)[C@@H](C)CC)C(=O)N[C@@H](CC(=O)O)C(=O)N[C@@H](CCCNC(=N)N)C(=O)N[C@@H](CCCCNC(=N)N)C(N)=O [Peptide P-23254, [Dat^1, D-Ala^2, Thr^8, Orn^12, Abu^15, Orn^21, Nle^27, Asp^28, Har^30]hGHRH(1-30)NH2] (Desaminotyrosyl-[dA]DAIFTTSYR[Orn]VL[Abu]QLSAR[Orn]LLQDI[Nle]DR[hArg]-NH2)				
148.0	48.7	CCCC[C@H](NC(=O)[C@@H](NC(=O)[C@H](CC(=O)O)NC(=O)[C@H](CCC(N)=O)NC(=O)[C@H](CC(C)C)NC(=O)[C@H](CC(C)C)NC(=O)[C@H](CCCN)NC(=O)[C@H](CCCNC(=N)N)NC(=O)[C@H](C)NC(=O)[C@H](CO)NC(=O)[C@H](CC(C)C)NC(=O)[C@H](CCC(N)=O)NC(=O)[C@H](CC)NC(=O)[C@H](CC(C)C)NC(=O)[C@@H](NC(=O)[C@H](CCCN)NC(=O)[C@H](CCCNC(=N)N)NC(=O)[C@H](Cc1ccc(O)cc1)NC(=O)[C@H](CO)NC(=O)[C@H](C)NC(=O)[C@@H](NC(=O)[C@H](Cc1ccccc1)NC(=O)[C@@H](NC(=O)[C@H](C)NC(=O)[C@H](CC(=O)O)NC(=O)[C@@H](C)NC(=O)CCc1ccc(O)cc1)[C@@H](C)CC)[C@@H](C)O)C(C)C)[C@@H](C)CC)C(=O)N[C@@H](CC(=O)O)C(=O)N[C@@H](CCCNC(=N)N)C(=O)N[C@@H](CCCCNC(=N)N)C(N)=O [Peptide P-23256, [Dat^1, D-Ala^2, Ala^8, Orn^12, Abu^15, Orn^21, Nle^27, Asp^28, Har^30]hGHRH(1-30)NH2] (Desaminotyrosyl-[dA]DAIFTASYR[Orn]VL[Abu]QLSAR[Orn]LLQDI[Nle]DR[hArg]-NH2)				
74.0	24.4	CCCC[C@H](NC(=O)[C@@H](NC(=O)[C@H](CC(=O)O)NC(=O)[C@H](CCC(N)=O)NC(=O)[C@H](CC(C)C)NC(=O)[C@H](CC(C)C)NC(=O)[C@H](CCCN)NC(=O)[C@H](CCCNC(=N)N)NC(=O)[C@H](C)NC(=O)[C@H](CO)NC(=O)[C@H](CC(C)C)NC(=O)[C@H](CCC(N)=O)NC(=O)[C@H](CC)NC(=O)[C@H](CC(C)C)NC(=O)[C@@H](NC(=O)[C@H](CCCN)NC(=O)[C@H](CCCNC(=N)N)NC(=O)[C@H](Cc1ccc(O)cc1)NC(=O)[C@H](CO)NC(=O)[C@H](CCC(N)=O)NC(=O)[C@@H](NC(=O)[C@H](Cc1ccccc1)NC(=O)[C@@H](NC(=O)[C@H](C)NC(=O)[C@H](CC(=O)O)NC(=O)[C@@H](C)NC(=O)CCc1ccc(O)cc1)[C@@H](C)CC)[C@@H](C)O)C(C)C)[C@@H](C)CC)C(=O)N[C@@H](CC(=O)O)C(=O)N[C@@H](CCCNC(=N)N)C(=O)NCCCCCCCC(N)=O [Peptide P-21304, [Dat^1, D-Ala^2, Gln^8, Orn^12, Abu^15, Orn^21, Nle^27, Asp^28, Amc^30]hGHRH(1-30)NH2] (Desaminotyrosyl-[dA]DAIFTQSYR[Orn]VL[Abu]QLSAR[Orn]LLQDI[Nle]DR[Aoc]-NH2)				
		CCCC[C@H](NC(=O)[C@@H](NC(=O)[C@H](CC(=O)O)NC(=O)[C@H](CCC(N)=O)NC(=O)[C@H](CC(C)C)NC(=O)[C@H](CC(C)C)NC(=O)[C@H](CCCN)NC(=O)[C@H](CCCNC(=N)N)NC(=O)[C@H](C)NC(=O)[C@H](CO)NC(=O)[C@H](CC(C)C)NC(=O)[C@H](CCC(N)=O)NC(=O)[C@H](CC)NC(=O)[C@H](CC(C)C)NC(=O)[C@@H](NC(=O)[C@H](CCCN)NC(=O)[C@H](CCCNC(=N)N)NC(=O)[C@H](Cc1ccc(O)cc1)NC(=O)[C@H](CO)NC(=O)[C@H](CCC(N)=O)NC(=O)[C@@H](NC(=O)[C@H](Cc1ccccc1)NC(=O)[C@@H](NC(=O)[C@H](C)NC(=O)[C@H](CC(=O)O)NC(=O)[C@@H](C)NC(=O)CCc1ccc(O)cc1)[C@@H](C)CC)[C@@H](C)O)C(C)C)[C@@H](C)CC)C(=O)N[C@@H](CC(=O)O)C(=O)NCCCCNC(=N)N [Peptide P-20350, [Dat^1, D-Ala^2, Gln^8, Orn^12, Abu^15, Orn^21, Nle^27, Asp^28, Agm^29]hGHRH(1-29)] (Desaminotyrosyl-[dA]DAIFTQSYR[Orn]VL[Abu]QLSAR[Orn]LLQDI[Nle]D-Agmatine)	8.37	101.5	42.7	stimulated greater growth hormone levels than hGHRH or JI-38
		CCCC[C@H](NC(=O)[C@@H](NC(=O)[C@H](CC(=O)O)NC(=O)[C@H](CCC(N)=O)NC(=O)[C@H](CC(C)C)NC(=O)[C@H](CC(C)C)NC(=O)[C@H](CCCN)NC(=O)[C@H](CCCNC(=N)N)NC(=O)[C@H](C)NC(=O)[C@H](CO)NC(=O)[C@H](CC(C)C)NC(=O)[C@H](CCC(N)=O)NC(=O)[C@H](CC)NC(=O)[C@H](CC(C)C)NC(=O)[C@@H](NC(=O)[C@H](CCCN)NC(=O)[C@H](CCCNC(=N)N)NC(=O)[C@H](Cc1ccc(O)cc1)NC(=O)[C@H](CO)NC(=O)[C@H](CC(N)=O)NC(=O)[C@@H](NC(=O)[C@H](Cc1ccccc1)NC(=O)[C@@H](NC(=O)[C@H](C)NC(=O)[C@H](CC(=O)O)NC(=O)[C@@H](C)NC(=O)CCc1ccc(O)cc1)[C@@H](C)CC)[C@@H](C)O)C(C)C)[C@@H](C)CC)C(=O)N[C@@H](CO)C(=O)N[C@@H](CCCNC(=N)N)C(=O)N[C@@H](CCC(N)=O)C(=O)NCCCC(N)=O [Peptide P-29702, [Dat^1, D-Ala^2, Orn^12, Abu^15, Orn^21, Nle^27, Gln-Gab^30]hGHRH(1-30)NH2] (Desaminotyrosyl-[dA]DAIFTNSYR[Orn]VL[Abu]QLSAR[Orn]LLQDI[Nle]SRQ[GABA]-NH2)	5.06	81.2	34.2	

Compound	Relative affinitiy (Binding potency) vs GHRH [1]	Relative affinitiy (Binding potency) vs JI-38 [1]	Relative affinitiy (Binding potency) vs JI-38 [2]	Relative affinitiy (Binding potency) vs GHRH [3]	Relative affinitiy (Binding potency) vs JI-38 [3]	Stimulation of growth hormone levels after s.c. administration (comparison in words) [4]
CCCC[C@H](NC(=O)[C@@H](NC(=O)[C@H](CC(=O)O)NC(=O)[C@H](CCC(N)=O)NC(=O)[C@H](CC(C)C)NC(=O)[C@H](CC(C)C)NC(=O)[C@H](CCCN)NC(=O)[C@H](CCCNC(=N)N)NC(=O)[C@H](C)NC(=O)[C@H](CO)NC(=O)[C@H](CC(C)C)NC(=O)[C@H](CCC(N)=O)NC(=O)[C@H](CC)NC(=O)[C@H](CC(C)C)NC(=O)[C@@H](NC(=O)[C@H](CCCN)NC(=O)[C@H](CCCNC(=N)N)NC(=O)[C@H](Cc1ccc(O)cc1)NC(=O)[C@H](CO)NC(=O)[C@H](CC(N)=O)NC(=O)[C@@H](NC(=O)[C@H](Cc1ccccc1)NC(=O)[C@@H](NC(=O)[C@H](C)NC(=O)[C@H](CC(=O)O)NC(=O)[C@H](C)NC(=O)CCc1ccc(O)cc1)[C@@H](C)CC)[C@@H](C)O)C(C)C)[C@@H](C)CC)C(=O)N[C@@H](CC(=O)O)C(=O)NCCCCNC(=N)N [JI-34, reference compound] (Desaminotyrosyl-ADAIFTNSYR[Orn]VL[Abu]QLSAR[Orn]LLQDI[Nle]D-Agmatine; N-terminus and C-terminus assumed)	4.32					
